SMILES strings stand for the structures. Like-named read-outs stand apart in the source and are kept apart here. Where only a bound is given, the exact number is not on record here.

Assay [1] relates to group II mGlu receptors (mGlu2 and mGlu3). The settings on record: cited from earlier work.
The target in a further assay is T1, human mGlu2 (Homo sapiens, UniProt Q14416).
T1 construct: expressed in transfected cells; host or cells: HEK-293 stably co-expressing GIRK channels
Kind of assay: mGlu GIRK cell-based thallium flux assay, human mGlu2. The settings on record: HEK-293 cells co-expressing human mGlu2 and GIRK, EC80 glutamate, single experiment.

Another assay addresses T2, human mGlu3 (Homo sapiens, UniProt Q14832).
T2 construct: expressed in transfected cells; host or cells: HEK-293 stably co-expressing GIRK channels
Description: mGlu GIRK cell-based thallium flux assay, human mGlu3. The settings on record: HEK-293 cells co-expressing human mGlu3 and GIRK, EC80 glutamate, single experiment. As to the method: Human embryonic kidney (HEK-293) cell lines stably co-expressing human or rat mGlu2 and G protein-coupled inwardly rectifying potassium (GIRK) channels, or human mGlu3 and GIRK, were used for in vitro evaluation of compound activity in thallium flux assay using a fluorescent thallium indicator dye.
The day before the assay, GIRK cells co-expressing human mGlu3, human or rat mGlu2, as described above, were plated in black-walled, clear-bottomed, amine-coated 384-well plates at a density of 15,000 cells/[…]/well in the assay medium (glutamine-depleted basal DMEM supplemented with 10% dialyzed FBS, 20 mM HEPES, 1 mM sodium pyruvate). Cells were incubated at 37° C. in the presence of 5% CO2. The next day, assay buffer (Hanks balanced salt solution, 20 mM HEPES, 4.16 mM sodium bicarbonate, pH 7.2) was prepared to dilute compounds and Thallos AM fluorescent dye solution. The 2× Thallos dye solution (final concentration 0.34 μM to the cells) was prepared by mixing the dye stock (2.97 mM in DMSO) to 1:1 with 10% pluronic acid before adding to the assay buffer. Cells were washed with assay buffer using a microplate washer to remove the medium, resulting in 20 μL of buffer remaining in each well. […] During the cell dye loading incubation period, a 10-point concentration serial dilution of compound was created from a 10 mM DMSO compound stock by performing a 1:3 serial dilution in DMSO using the Bravo liquid handler. The 2× compound plate was generated by transferring 0.24 μL of the diluted compound in each well to a daughter plate using an Echo acoustic liquid handler. This is further diluted in 40 μL assay buffer, resulting in a range from […] to 1.5 nM final concentration in the assay. The agonist plate (5×) was prepared to include EC80 glutamate concentration (a concentration to elicit 80% of a maximally effective glutamate concentration) in thallium buffer (125 mM sodium bicarbonate, 1 mM magnesium sulfate, 1.8 mM calcium sulfate, 5 mM glucose, 10 mM HEPES, pH 7.2, 12.5 mM thallium sulfate).
After dye-loading, cell plates were washed with assay buffer to remove excess extracellular dye using a microplate washer, resulting in 20 μL of buffer remaining in each well. After a ten-minute equilibration period, cell, compound and agonist plates were loaded into a Hamamatsu μCell kinetic imaging plate reader equipped with liquid handler to monitor fluorescence changes at 480 nm excitation and 540 nm emission settings. Briefly, after collection of baseline fluorescence, 20 μL of compound was added and incubated for two minutes and twenty seconds. This is immediately followed by adding 10 μL of glutamate-thallium buffer to the wells containing compound. The fluorescent signal was monitored an additional 2.5 minutes after the glutamate addition. Multiple reference wells containing no compound received either no glutamate (for a baseline reference), EC80 glutamate, or ECmax glutamate (for normalization to maximum response). […] Each compound concentration series occurred one time in each plate, and replicates from two or three plates were used in each experimental run. Thallium solutions were handled and disposed of according to guidelines from the Vanderbilt University Chemical Safety department.
Data were normalized using a static ratio function (F/F0) by dividing every fluorescent measurement by the initial fluorescent value for the corresponding well. The increase in signal resulting from the glutamate/thallium addition of the second add was measured by determining the slope from 3 seconds to 13 seconds after the addition. The average of all baseline slopes (no compound, no glutamate) was determined and this value was subtracted from all other slope values. The average of all ECmax slopes was determined and this value was used to normalize the baseline-corrected slopes to a percent max value (% Emax).

In assay [2] the test system is central mGlu2 and mGlu3 receptors. The settings on record: target-specific manner; cited from earlier work.
The conditions of assay [3]: C57B16/J mice, FST; cited from earlier work.
For assay [4] the following is noted: cited from earlier work; for activity in the tail suspension test: Helpless (H) mice; for antidepressant effect: helpless mice.
For assay [5], the system named is mGlu2/3 receptor. The settings on record: rat forced swim test, normal animals; cited from earlier work.
Assay [6] has as its system mGlu2/3 receptor. The settings on record: mouse tail-suspension test, normal animals; cited from earlier work.
The subject of another assay is group II mGlu receptors. The settings on record: treated mice; cited from earlier work.
The next assay has as its system mGlu2. The settings on record: cited from earlier work.
The test system of assay [7] is mGlu2/3 receptor. The settings on record: learned helplessness test; treatment for 7 days; cited from earlier work.
The conditions of assay [8]: olfactory bulbectomized rats; repeated administration for 14 days; cited from earlier work.
The conditions of assay [9]: social isolation reared mice; cited from earlier work.
The test system of assay [10] is group II mGlu receptors (mGlu2 and mGlu3). The settings on record: CFS model; cited from earlier work.
The conditions of assay [11]: dominant-submissive test; cited from earlier work.

T2 sequence (Q14832 23-879): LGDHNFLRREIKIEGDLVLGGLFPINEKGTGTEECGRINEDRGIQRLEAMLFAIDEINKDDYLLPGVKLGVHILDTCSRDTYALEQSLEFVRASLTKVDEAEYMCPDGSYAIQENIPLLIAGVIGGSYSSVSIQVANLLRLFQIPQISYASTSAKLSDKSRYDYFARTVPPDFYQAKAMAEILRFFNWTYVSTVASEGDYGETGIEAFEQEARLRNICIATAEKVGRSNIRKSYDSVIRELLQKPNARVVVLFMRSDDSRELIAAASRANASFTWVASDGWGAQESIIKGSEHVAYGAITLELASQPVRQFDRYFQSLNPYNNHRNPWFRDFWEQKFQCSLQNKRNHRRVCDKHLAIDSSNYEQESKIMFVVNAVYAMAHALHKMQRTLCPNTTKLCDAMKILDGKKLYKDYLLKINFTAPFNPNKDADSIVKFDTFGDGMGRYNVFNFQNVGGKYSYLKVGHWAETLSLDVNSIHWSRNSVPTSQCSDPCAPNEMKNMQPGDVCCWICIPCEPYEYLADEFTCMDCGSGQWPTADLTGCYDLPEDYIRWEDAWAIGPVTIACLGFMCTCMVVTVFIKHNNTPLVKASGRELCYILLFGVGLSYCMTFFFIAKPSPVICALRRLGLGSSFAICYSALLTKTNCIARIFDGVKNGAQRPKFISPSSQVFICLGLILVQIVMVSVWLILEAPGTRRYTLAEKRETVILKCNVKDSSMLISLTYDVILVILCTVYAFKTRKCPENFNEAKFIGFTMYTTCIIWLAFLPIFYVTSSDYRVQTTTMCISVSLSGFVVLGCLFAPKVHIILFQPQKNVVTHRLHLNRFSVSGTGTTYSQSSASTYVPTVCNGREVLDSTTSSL
T1 sequence (Q14416 19-872): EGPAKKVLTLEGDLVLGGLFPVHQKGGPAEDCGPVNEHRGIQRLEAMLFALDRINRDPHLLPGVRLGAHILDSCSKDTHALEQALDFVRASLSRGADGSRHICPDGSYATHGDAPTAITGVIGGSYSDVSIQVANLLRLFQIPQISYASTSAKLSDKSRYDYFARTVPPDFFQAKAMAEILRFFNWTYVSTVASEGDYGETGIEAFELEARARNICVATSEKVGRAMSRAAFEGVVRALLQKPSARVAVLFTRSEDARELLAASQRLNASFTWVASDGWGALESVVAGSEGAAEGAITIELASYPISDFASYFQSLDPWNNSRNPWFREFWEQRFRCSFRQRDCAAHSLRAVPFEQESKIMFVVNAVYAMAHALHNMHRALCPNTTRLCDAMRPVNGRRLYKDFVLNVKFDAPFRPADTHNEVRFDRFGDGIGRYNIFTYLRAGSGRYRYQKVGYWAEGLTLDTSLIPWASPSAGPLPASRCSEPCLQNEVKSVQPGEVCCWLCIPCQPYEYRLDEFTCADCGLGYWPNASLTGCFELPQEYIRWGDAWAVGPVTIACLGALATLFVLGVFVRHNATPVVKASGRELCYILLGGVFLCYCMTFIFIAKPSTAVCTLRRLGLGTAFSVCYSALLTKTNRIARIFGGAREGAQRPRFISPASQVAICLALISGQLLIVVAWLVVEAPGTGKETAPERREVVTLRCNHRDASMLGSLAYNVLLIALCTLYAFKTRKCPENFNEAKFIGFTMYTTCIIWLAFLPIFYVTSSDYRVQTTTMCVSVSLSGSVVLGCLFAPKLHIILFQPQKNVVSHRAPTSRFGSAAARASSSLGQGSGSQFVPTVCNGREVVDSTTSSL

For `CCCCCCCOC(=O)[C@@]1(F)[C@@H]2C[C@@H](OCc3ccc(Cl)c(Cl)c3)[C@@](N)(C(=O)O)[C@@H]21` [BCI-838], in assay [1] (three months of treatment), the “Dutch APP transgene-associated learning and memory impairment” value is “reversed”; the anxiolytic effects result is recorded as “anxiolytic effects”. In addition, the “levels of monomeric and oAβ peptides in the hippocampus and cortex” value in [1] (three months of treatment, two AD mouse models) is reported as “decreased”. The “hippocampal progenitor cell proliferation” value in assay [1] (wild-type and Alzheimer's diseased mice, 3 months) was “stimulated”.

On to `N#CC1CCCN(c2cc(-c3ccc(F)cc3F)cc3c2CNC3=O)C1` (stereo not shown) [Compound A10, 1-(6-(2,4-difluorophenyl)-1-oxoisoindolin-4-yl)piperidine-3-carbonitrile], for which the IC50 on human mGlu2 was 386 nM; against human mGlu3, greater than 10 µM.

Consider `CC1(C)CCN(c2cc(-c3ccc(F)cc3F)cc3c2CNC3=O)CC1` [Compound A16, 6-(2,4-difluorophenyl)-4-(4,4-dimethylpiperidin-1-yl)isoindolin-1-one], for which the figures for the IC50 against human mGlu2 and at human mGlu3 were 3950 nM and greater than 10 µM, respectively.

`COC1CCCN(c2cc(-c3ccc(F)cc3F)cc3c2CNC3=O)C1` (stereo not shown) [Compound A18, 6-(2,4-difluorophenyl)-4-(3-methoxypiperidin-1-yl)isoindolin-1-one]: the IC50 on human mGlu2 was 490 nM; on human mGlu3 it was 9.87 µM.

With `O=C1NCc2c(CN3CCSCC3)cc(-c3ccc(F)cc3F)cc21` [Compound B1, 6-(2,4-difluorophenyl)-4-(thiomorpholinomethyl)isoindolin-1-one], the values for the half-inhibitory concentration (IC50) against human mGlu2 and against human mGlu3 were 180 nM and 4.62 µM, respectively.

For the compound `O=C1NCc2c(CN3CCOCC3)cc(-c3ccc(F)cc3F)cc21` [Compound B2, 6-(2,4-difluorophenyl)-4-(morpholinomethyl)isoindolin-1-one], the IC50 at human mGlu2 was 182 nM; at human mGlu3, greater than 10 µM.

As for `CN1CCCC(c2cc(-c3ccc(F)cc3F)cc3c2CNC3=O)C1` (stereo not shown) [Compound B3, 6-(2,4-difluorophenyl)-4-(1-methylpiperidin-3-yl)isoindolin-1-one], the concentration for half-maximal inhibition (IC50) against human mGlu2 was 1490 nM; on human mGlu3 it was greater than 10 µM.

`O=C1NCc2c1cc(-c1ccc(F)cc1F)cc2C1CCNC1` (stereo not shown) [Compound B6, 6-(2,4-difluorophenyl)-4-(pyrrolidin-3-yl)isoindolin-1-one]: the results for the concentration for half-maximal inhibition (IC50) on human mGlu2 and at human mGlu3 were greater than 10000 nM and greater than 10 µM, respectively.

For `Cc1cc(-c2cccc(C3=Nc4cc(C)c(C(F)(F)F)cc4NC(=O)C3)c2)cc(C)n1` [Compound R04491533], in assay [2], the “hypolocomotor effect of mGlu2/3 agonist (LY379268)” value is on record as “reversed”. The immobility time entry in assay [3] was “dose-dependently reduced”. In assay [4], the “activity in the tail suspension test” value is given as “active”.

Turning to `N[C@](CC1c2ccccc2Oc2ccccc21)(C(=O)O)[C@H]1C[C@@H]1C(=O)O` [LY341495], the antidepressant-like effects entry in the assay with mGlu2/3 receptor [5] and in the assay with mGlu2/3 receptor [6] was “Antidepressant-like effects” each time. Also, the “hypolocomotor effect of mGlu2/3 agonist (LY379268)” value in assay [2] is “achieved the same result”. Also, the immobility time entry in assay [3] is “dose-dependently reduced”. For the same compound, the “activity in the tail suspension test” value in assay [4] is listed as “active”. Further, in [4] (acute administration), the antidepressant effect entry was “potent antidepressant effect”. In addition, in the assay on group II mGlu receptors, the marble-burying behavior result was “significantly reduce”. Besides, the “LY566332 amplification of AP-induced neurodegeneration” value with mGlu2 is “prevented”.

`CCS(=O)(=O)N(Cc1cccnc1)c1cccc(-c2ccc(C#N)cc2)c1` [LY566332]: the AP-induced neurodegeneration result in the assay with mGlu2 was “amplified”.

On to `N[C@]1(C(=O)O)[C@H]2[C@@H](C[C@H]1OCc1ccc(Cl)c(Cl)c1)[C@]2(F)C(=O)O` [MGS0039], for which the antidepressant-like effects entry with mGlu2/3 receptor [5] is given as “Antidepressant-like effects”. Moreover, in the assay with mGlu2/3 receptor [6], the antidepressant-like effects result is “Antidepressant-like effects”. The “number of escape failures” value in the assay on mGlu2/3 receptor [7] is listed as “significantly reduced”. Besides, in assay [8], the “hyperactivity in the open field test” value is recorded as “attenuated” and the “learning deficit in the passive avoidance test” value is “attenuated”. Moreover, the “increased immobility in the FST” value in assay [9] was “reversed”. In addition, in the assay on group II mGlu receptors, the marble-burying behavior result is “reduced marble-burying behavior in a significant and dose dependent manner”; the spontaneous locomotor activity entry is reported as “no significant change”. For the same compound, the freezing behavior result in assay [10] is “significantly decreased”.

As for `CN1C(=O)CN=C(c2ccccc2)c2cc(Cl)ccc21` [diazepam], the freezing behavior result in assay [10] is reported as “significantly decreased”.

On to `CNCCC(Oc1ccc(C(F)(F)F)cc1)c1ccccc1` (stereo not shown) [fluoxetine], for which the antidepressant effect result in [4] (chronic (21 days) treatment) is recorded as “full antidepressant effect”. Further, the onset of effects entry in [11] is “after two weeks”.

With `COCCCC/C(=N\OCCN)c1ccc(C(F)(F)F)cc1` [fluvoxamine], the freezing behavior result in assay [10] is on record as “significantly decreased”.

For orientation: IC50 means the point on the concentration scale where inhibition reaches its midpoint. A low value points to greater potency.

Values taken from patent US20260226019A1, “NEGATIVE ALLOSTERIC MODULATORS OF METABOTROPIC GLUTAMATE RECEPTOR 2” (Vanderbilt University, priority 2023, published 2026).
